Results on 8 test systems are retold here after the supplement of paper PMC6045584.

Compound in assay [1]: Cc1cn(-c2cc(NC(=O)c3ccc(C)c(Nc4nccc(-c5cccnc5)n4)c3)cc(C(F)(F)F)c2)cn1 [NILOTINIB]
Description: surviving fraction relative to DMSO-only wells; higher = less growth inhibition. The following applies: exposure time: 5 days. In a few lines:
(§1)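 Five days of continuous inhibitor exposure, at 0.5, 1, 5, 10, 50, 100, 500 and 1000 nM, followed a 24-hour period after log-phase tumour cell lines were seeded at 250–500 cells per well in 384-well plates. Surviving fraction was derived from CellTiter-Glo luminescence relative to the median of DMSO-only wells. Plates were read after 10 minutes at room temperature, and lines screened three times were kept only if replicate Pearson r >0.7 and median Z' >0.3.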

Compound in assay [2]: Cn1c(=O)n(-c2ccc(C(C)(C)C#N)cc2)c2c3cc(-c4cnc5ccccc5c4)ccc3ncc21 [BEZ-235]
Described as above. The note with it: exposure time: 5 days. In a few lines:
as §1

± gives the standard deviation of the averaged measurements.

SG32 HEADNECK: the surviving fraction in assay [1] (0.5 nM) was found to be 0.984 ± 0.025; in assay [1] (1 nM), 0.986 ± 0.062; in assay [1] (5 nM) it was 1.16 ± 0.12; in assay [1] (10 nM), 1.24 ± 0.26; in assay [1] (50 nM) it was 0.823 ± 0.21; in assay [1] (100 nM) it was 0.864 ± 0.16. The surviving fraction in assay [1] (500 nM) came to 0.866 ± 0.039; in assay [1] (1000 nM) it was 0.834 ± 0.12; in assay [2] (0.5 nM) it was 1.1 ± 0.18; in assay [2] (1 nM) it was 1.03 ± 0.1; in assay [2] (5 nM), 1.42 ± 0.26; in assay [2] (10 nM), 1.25 ± 0.13. For the same test system, the surviving fraction in assay [2] (50 nM) worked out at 0.861 ± 0.061; in assay [2] (100 nM), 0.497 ± 0.083; in assay [2] (500 nM) it was 0.255 ± 0.013; in assay [2] (1000 nM), 0.176 ± 0.026.
For the test system MDAMB157 BREAST, the surviving fraction in assay [1] (0.5 nM) amounted to 1.11 ± 0.045; in assay [1] (1 nM) it was 0.957 ± 0.047; in assay [1] (5 nM) it was 1.09 ± 0.083; in assay [1] (10 nM), 1.11 ± 0.041; in assay [1] (50 nM), 1.1 ± 0.066; in assay [1] (100 nM) it was 1.07 ± 0.018. The surviving fraction came to 0.932 ± 0.17 in assay [1] (500 nM); 0.928 ± 0.063 in assay [1] (1000 nM); 0.983 ± 0.056 in assay [2] (0.5 nM); 0.974 ± 0.1 in assay [2] (1 nM); 0.936 ± 0.12 in assay [2] (5 nM); 1.02 ± 0.11 in assay [2] (10 nM). For the same test system, the surviving fraction in assay [2] (50 nM) was found to be 0.825 ± 0.094; in assay [2] (100 nM) it was 0.752 ± 0.081; in assay [2] (500 nM) it was 0.454 ± 0.06; in assay [2] (1000 nM) it was 0.381 ± 0.008.
As to HCC1395 BREAST, the surviving fraction in assay [1] (0.5 nM) amounted to 1.01 ± 0.038; in assay [1] (1 nM), 0.988 ± 0.097; in assay [1] (5 nM) it was 1.2 ± 0.074; in assay [1] (10 nM), 1.19 ± 0.023; in assay [1] (50 nM), 1.03 ± 0.055; in assay [1] (100 nM), 1.03 ± 0.16. In addition, the surviving fraction in assay [1] (500 nM) was determined as 0.854 ± 0.062; in assay [1] (1000 nM), 0.929 ± 0.14; in assay [2] (0.5 nM), 1.03 ± 0.12; in assay [2] (1 nM), 0.967 ± 0.11; in assay [2] (5 nM), 1.14 ± 0.095; in assay [2] (10 nM), 1.09 ± 0.037. For the same test system, the surviving fraction in assay [2] (50 nM) worked out at 0.988 ± 0.12; in assay [2] (100 nM) it was 1 ± 0.13; in assay [2] (500 nM), 0.788 ± 0.12; in assay [2] (1000 nM), 0.759 ± 0.17.
Consider SIHA CERVIX, for which the surviving fraction in assay [1] (0.5 nM) was found to be 1.03 ± 0.029; in assay [1] (1 nM), 1.02 ± 0.029; in assay [1] (5 nM), 1 ± 0.024; in assay [1] (10 nM), 1.11 ± 0.04; in assay [1] (50 nM), 1.09 ± 0.036; in assay [1] (100 nM), 1.061 ± 0.0087. The surviving fraction in assay [1] (500 nM) worked out at 1.05 ± 0.055; in assay [1] (1000 nM) it was 1.03 ± 0.037; in assay [2] (0.5 nM), 1.08 ± 0.1; in assay [2] (1 nM) it was 1.14 ± 0.099; in assay [2] (5 nM) it was 1.07 ± 0.044; in assay [2] (10 nM), 1.03 ± 0.046. The surviving fraction in assay [2] (50 nM) is 0.642 ± 0.064; in assay [2] (100 nM), 0.485 ± 0.029; in assay [2] (500 nM), 0.237 ± 0.008; in assay [2] (1000 nM), 0.222 ± 0.016.
In the case of MG63 BONE, the surviving fraction in assay [1] (0.5 nM) was 1.03 ± 0.04; in assay [1] (1 nM), 1.04 ± 0.053; in assay [1] (5 nM), 1.11 ± 0.042; in assay [1] (10 nM) it was 1.13 ± 0.079; in assay [1] (50 nM), 1.19 ± 0.043; in assay [1] (100 nM) it was 1.23 ± 0.07. The surviving fraction in assay [1] (500 nM) is 1.24 ± 0.047; in assay [1] (1000 nM), 1.28 ± 0.049; in assay [2] (0.5 nM) it was 1.04 ± 0.071; in assay [2] (1 nM), 1.03 ± 0.027; in assay [2] (5 nM) it was 1.06 ± 0.067; in assay [2] (10 nM) it was 1.03 ± 0.052. Also, the surviving fraction turned out to be 0.582 ± 0.026 in assay [2] (50 nM), 0.45 ± 0.024 in assay [2] (100 nM), 0.17 ± 0.014 in assay [2] (500 nM) and 0.143 ± 0.011 in assay [2] (1000 nM).
For HOSMNG BONE, the surviving fraction is 0.898 ± 0.073 in assay [1] (0.5 nM); 0.97 ± 0.062 in assay [1] (1 nM); 0.956 ± 0.044 in assay [1] (5 nM); 0.937 ± 0.039 in assay [1] (10 nM); 1.03 ± 0.03 in assay [1] (50 nM); 0.957 ± 0.064 in assay [1] (100 nM). Besides, the surviving fraction turned out to be 1.07 ± 0.029 in assay [1] (500 nM); 1.22 ± 0.018 in assay [1] (1000 nM); 0.956 ± 0.014 in assay [2] (0.5 nM); 0.96 ± 0.041 in assay [2] (1 nM); 0.929 ± 0.022 in assay [2] (5 nM); 0.958 ± 0.05 in assay [2] (10 nM). Also, the surviving fraction stood at 0.917 ± 0.044 in assay [2] (50 nM), 0.772 ± 0.035 in assay [2] (100 nM), 0.426 ± 0.0052 in assay [2] (500 nM) and 0.297 ± 0.012 in assay [2] (1000 nM).
C33A CERVIX: the surviving fraction in assay [1] (0.5 nM) worked out at 0.986 ± 0.1; in assay [1] (1 nM), 1.08 ± 0.05; in assay [1] (5 nM), 1.07 ± 0.031; in assay [1] (10 nM), 1.01 ± 0.06; in assay [1] (50 nM), 1.13 ± 0.067; in assay [1] (100 nM), 1.27 ± 0.031. The surviving fraction in assay [1] (500 nM) turned out to be 1.2 ± 0.086; in assay [1] (1000 nM), 1.14 ± 0.12; in assay [2] (0.5 nM) it was 0.941 ± 0.029; in assay [2] (1 nM), 0.984 ± 0.064; in assay [2] (5 nM) it was 1.01 ± 0.098; in assay [2] (10 nM), 0.993 ± 0.081. The surviving fraction in assay [2] (50 nM) was determined as 0.62 ± 0.043; in assay [2] (100 nM), 0.349 ± 0.031; in assay [2] (500 nM), 0.15 ± 0.016; in assay [2] (1000 nM), 0.14 ± 0.011.
Take BT20 BREAST: the surviving fraction came to 1.076 ± 0.0072 in assay [1] (0.5 nM); 1.073 ± 0.0027 in assay [1] (1 nM); 1.06 ± 0.05 in assay [1] (5 nM); 1.16 ± 0.084 in assay [1] (10 nM); 0.913 ± 0.14 in assay [1] (50 nM); 1.01 ± 0.14 in assay [1] (100 nM). For the same test system, the surviving fraction in assay [1] (500 nM) was 0.984 ± 0.12; in assay [1] (1000 nM), 0.878 ± 0.062; in assay [2] (0.5 nM), 1.13 ± 0.062; in assay [2] (1 nM), 1.07 ± 0.18; in assay [2] (5 nM) it was 1.04 ± 0.14; in assay [2] (10 nM), 1.03 ± 0.082. The surviving fraction in assay [2] (50 nM) was 0.619 ± 0.051; in assay [2] (100 nM) it was 0.42 ± 0.087; in assay [2] (500 nM) it was 0.265 ± 0.044; in assay [2] (1000 nM) it was 0.246 ± 0.031.
